The values that follow come from PMC11915801, “Evolutionary trajectory of bacterial resistance to antibiotics and antimicrobial peptides in Escherichia coli” (mSystems, 2025).

Experiment [1] deals with antibiotic- and AMP-evolved strains of MG1655. As to conditions: 1.5% H2O2, 37°C, 1 h in the dark, CFU counting. The protocol: Bacterial cells were proportionally mixed with 3% hydrogen peroxide solution and incubated at 37°C for 1 h in the dark. The reaction was terminated by adding a catalase solution with a final concentration of 1,000 U/mL. After diluting the mixture to an appropriate gradient, the drops were carried out on LB agar plates, and then the agar plates were placed in a 37°C incubator overnight for colony counting.

For experiment [2], the system named is E. coli K-12 MG1655. Kind of experiment: microbe, parasite or virus in culture. The format is cell-based, Escherichia coli. As to conditions: for MIC of MG1655 under the pressure of the same drug, generation 20 / MIC of MG1655 under the pressure of the same drug, generation 30 / MIC of MG1655 under the pressure of the same drug, generation 40 / MIC of MG1655 under the pressure of the same drug, generation 50 / MIC of MG1655 under the pressure of the same drug, generation 60 / MIC of MG1655 under the pressure of the same drug, generation 70 / MIC of MG1655 under the pressure of the same drug, generation 80 / MIC of MG1655 under the pressure of the same drug, generation 90 / MIC of MG1655 under the pressure of the same drug, generation 100 / MIC of MG1655 under the pressure of the same drug, generation 110 / MIC of MG1655 under the pressure of the same drug, generation 120: as E2; for MIC of MG1655 under the pressure of the same drug, generation primary: broth microdilution (CLSI), primary MG1655 before passage; for MIC of MG1655 under the pressure of the same drug, generation 10: broth microdilution, line passaged in MH broth with sub-inhibitory drug, 12 h per passage, 37℃. On the procedure: (§1) The broth microdilution method was used to measure the MIC values of antibiotics and peptides according to the Clinical and Laboratory Standards Institute guidelines. The MIC value is defined as the lowest drug concentration without visible bacteria.
Eight antibiotics and ten AMPs at the sub-inhibitory concentration were prepared. A 300-µL system, including 260 µL of MH broth, 30 µL of prepared drug, and 10 µL of bacterial culture, was used for resistance passages. After 12 h of incubation at 37℃ and 200 rpm, 10 µL of the above bacterial culture was added into the new sterile drug-containing broth. MIC values of bacterial culture were determined. The drug concentration was adjusted according to the MIC value change until the end of the 120 passages.

The test system of experiment [3] is CIP120 (evolved MG1655). The experiment is described as follows: microbe, parasite or virus in culture. The format is cell-based, Escherichia coli. The following applies: broth microdilution; ciprofloxacin-evolved strain.
Description: (§2) To ensure the stable resistance evolution and inheritance of MG1655 under different drugs, we randomly selected three monoclonals from the evolved strains. The final antibiotic-evolved strains were designated as AMP120, AZI120, CHL80, CIP120, DOX120, KAN80, NIT70, and TMP30, while the final AMP-evolved strains were named COL120, Ind120, Omi120, Pex120, PGLA120, Pleu120, R8120, SAAP120, LI120, and SLAP120.
as §1

Experiment [4] relates to NIT70 (evolved MG1655). The experiment is described as follows: microbe, parasite or virus in culture. The format is cell-based, Escherichia coli. The following applies: broth microdilution; nitrofurantoin-evolved strain.
Description: as §2, §1

For experiment [5], the system named is AMP120 (evolved MG1655). Kind of experiment: microbe, parasite or virus in culture. Format: cell-based, Escherichia coli. The following applies: broth microdilution; ampicillin-evolved strain.
Description: as §2, §1

Experiment [6] deals with AZI120 (evolved MG1655). The experiment is described as follows: microbe, parasite or virus in culture. As to conditions: broth microdilution; azithromycin-evolved strain. The format is cell-based, Escherichia coli.
Description: as §2, §1

Experiment [7] concerns DOX120 (evolved MG1655). Kind of experiment: microbe, parasite or virus in culture. The following applies: broth microdilution; doxycycline-evolved strain. Format: cell-based, Escherichia coli.
Description: as §2, §1

Experiment [8] concerns KAN80 (evolved MG1655). Kind of experiment: microbe, parasite or virus in culture. The format is cell-based, Escherichia coli. As to conditions: broth microdilution; kanamycin-evolved strain.
Description: as §2, §1

The test system of experiment [9] is COL120 (evolved MG1655). Kind of experiment: microbe, parasite or virus in culture. The format is cell-based, Escherichia coli. As to conditions: broth microdilution; colistin-evolved strain.
Description: as §2, §1

Experiment [10] concerns TMP30 (evolved MG1655). Kind of experiment: microbe, parasite or virus in culture. The following applies: broth microdilution; trimethoprim-evolved strain. Format: cell-based, Escherichia coli.
Description: as §2, §1

The test system of experiment [11] is CHL80 (evolved MG1655). Kind of experiment: microbe, parasite or virus in culture. The format is cell-based, Escherichia coli. The following applies: broth microdilution; chloramphenicol-evolved strain.
Description: as §2, §1

Where a SMILES comes first, the peptide text is derived from it.

Take `OO` [H2O2, hydrogen peroxide]: the “survival rate of all strains after H2O2 treatment” value in [1] is given as “lower than 1%”.

As to `CC(C)C[C@H](NC(=O)[C@H](Cc1ccc(O)cc1)NC(=O)[C@H](Cc1c[nH]cn1)NC(=O)[C@@H](NC(=O)[C@H](CC(C)C)NC(=O)[C@H](C)NC(=O)[C@H](C)NC(=O)[C@H](CCCCN)NC(=O)CNC(=O)[C@@H](NC(=O)[C@H](Cc1c[nH]cn1)NC(=O)[C@H](CCCCN)NC(=O)CNC(=O)[C@@H](NC(=O)[C@H](Cc1c[nH]cn1)NC(=O)[C@H](C)NC(=O)[C@H](C)NC(=O)[C@H](CCCCN)NC(=O)[C@H](CCCCN)NC(=O)[C@H](Cc1ccccc1)NC(=O)[C@H](Cc1ccccc1)NC(=O)[C@H](CO)NC(=O)CNC(=O)[C@H](Cc1c[nH]c2ccccc12)NC(=O)CN)C(C)C)C(C)C)[C@@H](C)O)C(=O)O` [Pleu, Pleurocidin] (H-GWGSFFKKAAHVGKHVGKAALTHYL-OH), in [2], the “MIC of MG1655 under the pressure of the same drug, generation 20” value is on record as 2 µg/mL; the “MIC of MG1655 under the pressure of the same drug, generation 30” value is 2 µg/mL; the “MIC of MG1655 under the pressure of the same drug, generation 40” value stood at 2 µg/mL; the “MIC of MG1655 under the pressure of the same drug, generation 50” value was 2 µg/mL. For the same molecule, in [2], the “MIC of MG1655 under the pressure of the same drug, generation 60” value was 2 µg/mL; the “MIC of MG1655 under the pressure of the same drug, generation 70” value is reported as 2 µg/mL; the “MIC of MG1655 under the pressure of the same drug, generation 80” value amounted to 2 µg/mL; the “MIC of MG1655 under the pressure of the same drug, generation 90” value was found to be 2 µg/mL. In [2], the “MIC of MG1655 under the pressure of the same drug, generation 100” value came to 2 µg/mL; the “MIC of MG1655 under the pressure of the same drug, generation 110” value came out at 2 µg/mL; the “MIC of MG1655 under the pressure of the same drug, generation 120” value is reported as 2 µg/mL; the “MIC of MG1655 under the pressure of the same drug, generation primary” value is reported as 2 µg/mL. Further, in experiment [2], the “MIC of MG1655 under the pressure of the same drug, generation 10” value was 2 µg/mL. In addition, in experiment [3], the “MIC values of evolved MG1655, strain CIP120” value was found to be 1 µg/mL. In addition, in experiment [4], the “MIC values of evolved MG1655, strain NIT70” value was determined as 1 µg/mL. Further, the “MIC values of evolved MG1655, strain AMP120” value in [5] was found to be 1 µg/mL. Also, the “MIC values of evolved MG1655, strain AZI120” value in [6] turned out to be 1 µg/mL. Besides, in experiment [7], the “MIC values of evolved MG1655, strain DOX120” value worked out at 1 µg/mL. Moreover, in experiment [8], the “MIC values of evolved MG1655, strain KAN80” value is 1 µg/mL. For the same molecule, the “MIC values of evolved MG1655, strain COL120” value in [9] is 1 µg/mL. The “MIC values of evolved MG1655, strain TMP30” value in [10] amounted to 1 µg/mL. For the same molecule, the “MIC values of evolved MG1655, strain CHL80” value in [11] came to 1 µg/mL.

“Fatty acyl-Dab-Thr-Dab-Dab-Dab-D-Leu-Leu-Dab-Dab-Thr [COL, Colistin, cationic lipopeptide antibiotic (polymyxin), source microorganism]”: the “evolution of resistance in MG1655 (in words)” value in experiment [2] (MG1655, sub-inhibitory drug in MH broth over 60 days) is “marginal increase in resistance”. In addition, in experiment [2], the “MIC of MG1655 under the pressure of the same drug, generation 20” value came to 0.125 µg/mL; the “MIC of MG1655 under the pressure of the same drug, generation 30” value worked out at 0.25 µg/mL; the “MIC of MG1655 under the pressure of the same drug, generation 40” value came to 0.25 µg/mL; the “MIC of MG1655 under the pressure of the same drug, generation 50” value came out at 0.5 µg/mL. Moreover, in experiment [2], the “MIC of MG1655 under the pressure of the same drug, generation 60” value came to 0.5 µg/mL; the “MIC of MG1655 under the pressure of the same drug, generation 70” value is listed as 0.5 µg/mL; the “MIC of MG1655 under the pressure of the same drug, generation 80” value is reported as 0.5 µg/mL; the “MIC of MG1655 under the pressure of the same drug, generation 90” value was 0.5 µg/mL. In experiment [2], the “MIC of MG1655 under the pressure of the same drug, generation 100” value is 0.5 µg/mL; the “MIC of MG1655 under the pressure of the same drug, generation 110” value is listed as 0.5 µg/mL; the “MIC of MG1655 under the pressure of the same drug, generation 120” value worked out at 0.5 µg/mL; the “MIC of MG1655 under the pressure of the same drug, generation primary” value came to 0.125 µg/mL. Moreover, the “MIC of MG1655 under the pressure of the same drug, generation 10” value in experiment [2] stood at 0.125 µg/mL. Moreover, the “MIC values of evolved MG1655, strain CIP120” value in experiment [3] worked out at 0.5 µg/mL. Besides, the “MIC values of evolved MG1655, strain NIT70” value in experiment [4] was determined as 0.5 µg/mL. In addition, the “MIC values of evolved MG1655, strain AMP120” value in experiment [5] turned out to be 0.5 µg/mL. Also, the “MIC values of evolved MG1655, strain AZI120” value in experiment [6] is 0.5 µg/mL. In [7], the “MIC values of evolved MG1655, strain DOX120” value is 0.25 µg/mL. The “MIC values of evolved MG1655, strain KAN80” value in [8] amounted to 0.5 µg/mL. In addition, in [9], the “MIC values of evolved MG1655, strain COL120” value is 0.5 µg/mL. Besides, in experiment [10], the “MIC values of evolved MG1655, strain TMP30” value came to 0.5 µg/mL. The “MIC values of evolved MG1655, strain CHL80” value in experiment [11] is 0.25 µg/mL.
